Molecular target: NAMPT enzyme (Homo sapiens (Human), UniProt P43490)
Assay: Enzyme Assay and NMN Detection (NAMPT reaction, fluorescence detection of NMN)
Assay type: biochemical
Settings: Table B-1; NAMPT activation, NMN formation
Outline: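 Reaction in 50 mM HEPES pH 7.5, 5 mM MgCl2, 0.1% Prionex, 0.005% Tween 20, 1 mM TCEP at room temperature, with 16 nM NAMPT, 120 uM ATP, 5 uM nicotinamide, 6.25 uM PRPP, 0.04 U/ml pyrophosphatase for 2 h. Stopped with acetophenone/KOH then formic acid; NMN quantified by fluorescence (ex380/em460) against calibration curve.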

Chain of NAMPT enzyme (P43490 whole entry, species assumed): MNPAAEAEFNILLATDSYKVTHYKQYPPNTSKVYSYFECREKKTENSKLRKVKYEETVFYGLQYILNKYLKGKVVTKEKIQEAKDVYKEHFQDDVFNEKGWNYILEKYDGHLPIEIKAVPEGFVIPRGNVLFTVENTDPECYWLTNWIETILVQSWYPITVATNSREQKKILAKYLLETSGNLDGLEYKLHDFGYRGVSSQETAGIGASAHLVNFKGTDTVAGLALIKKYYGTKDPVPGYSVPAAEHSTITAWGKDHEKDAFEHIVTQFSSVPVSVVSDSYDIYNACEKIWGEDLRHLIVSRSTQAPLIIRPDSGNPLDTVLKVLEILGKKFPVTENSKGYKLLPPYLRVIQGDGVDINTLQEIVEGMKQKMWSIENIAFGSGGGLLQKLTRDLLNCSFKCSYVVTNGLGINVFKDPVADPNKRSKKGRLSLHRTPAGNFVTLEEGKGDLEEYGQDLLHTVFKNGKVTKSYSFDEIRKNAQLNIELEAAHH

`O=C(NCc1cn[nH]c1)Nc1ccc(C(=O)Nc2ccccc2Cl)cc1` [4-(3-((1H-pyrazol-4-yl)methyl)ureido)-N-(2-chlorophenyl)benzamide] and `COc1ccccc1NC(=O)c1ccc(NC(=O)NCc2cn[nH]c2)cc1` [4-(3-((1H-pyrazol-4-yl)methyl)ureido)-N-(2-methoxyphenyl)benzamide] fall in the same range of EC50: 100 to 2000 nM for the first, 100 to 2000 nM for the second.

`COc1cccc(NC(=O)c2ccc(NC(=O)NCc3cn[nH]c3)cc2)c1` [4-(3-((1H-pyrazol-4-yl)methyl)ureido)-N-(3-methoxyphenyl)benzamide] and `COc1ccc(NC(=O)c2ccc(NC(=O)NCc3cn[nH]c3)cc2)cc1` [4-(3-((1H-pyrazol-4-yl)methyl)ureido)-N-(4-methoxyphenyl)benzamide] fall in the same range of EC50: 100 to 2000 nM for the first, 100 to 2000 nM for the second.

Work on `O=C(NCc1cn[nH]c1)Nc1ccc(C(=O)Nc2ccc(Cl)cc2)cc1` [4-(3-((1H-pyrazol-4-yl)methyl)ureido)-N-(4-chlorophenyl)benzamide] yielded an EC50 of 100 to 2000 nM.

Same assay, conditions: Table B-2; NAMPT activation, NMN formation

Compared with `COc1cccc(S(=O)(=O)Nc2ccc(NC(=O)NCc3ccncc3)cc2)c1` [3-Methoxy-N-[4-(3-pyridin-4-ylmethyl-ureido)-phenyl]-benzenesulfonamide], `Cc1cccc(NS(=O)(=O)c2ccc(NC(=O)NCc3ccncc3)cc2)c1` [4-(3-Pyridin-4-ylmethyl-ureido)-N-m-tolyl-benzenesulfonamide] is higher in EC50: under 100 nM for the first, 100 to 2000 nM for the second.

`COC(=O)c1cccc(CNS(=O)(=O)c2ccc(NC(=O)NCc3ccncc3)cc2)c1` [3-{[4-(3-Pyridin-4-ylmethyl-ureido)-benzenesulfonylamino]-methyl}-benzoic acid methyl ester] and `O=C(NCc1ccncc1)Nc1ccc(S(=O)(=O)NCc2cccc(OC(F)(F)F)c2)cc1` [4-(3-Pyridin-4-ylmethyl-ureido)-N-(3-trifluoromethoxy-benzyl)-benzenesulfonamide] fall in the same range of EC50: 100 to 2000 nM for the first, 100 to 2000 nM for the second.

`O=C(NCc1ccncc1)Nc1ccc(C(=O)NCCN2CCCC2)cc1` [4-(3-(Pyridin-4-ylmethyl)ureido)-N-(2-(pyrrolidin-1-yl)ethyl)benzamide] and `O=C(NCc1ccncc1)Nc1ccc(S(=O)(=O)NCCN2CCCC2)cc1` [4-(3-Pyridin-4-ylmethyl-ureido)-N-(2-pyrrolidin-1-yl-ethyl)-benzensulfonamide] fall in the same range of EC50: 2000 to 5000 nM for the first, 2000 to 5000 nM for the second.

First: O=C(NCc1ccncc1)Nc1ccc(C(=O)Nc2ccccc2OC(F)(F)F)cc1 [4-(3-(Pyridin-4-ylmethyl)ureido)-N-(2-(trifluoromethoxy)phenyl)benzamide]
Second: O=C(NCc1ccncc1)Nc1ccc(C(=O)Nc2cccc(OC(F)(F)F)c2)cc1 [4-(3-(pyridin-4-ylmethyl)ureido)-N-(3-(trifluoromethoxy)phenyl)benzamide]
The EC50 of the first is lower: 100 to 2000 nM for the first, 2000 to 5000 nM for the second. The first is the more potent here.

First: Cc1cccc(NC(=O)c2ccc(NC(=O)NCc3ccncc3)cc2)c1 [4-(3-(Pyridin-4-ylmethyl)ureido)-N-(m-tolyl)benzamide]
Second: Cc1ccc(NC(=O)c2ccc(NC(=O)NCc3ccncc3)cc2)cc1 [4-(3-(Pyridin-4-ylmethyl)ureido)-N-(p-tolyl)benzamide]
The EC50 of the first is lower: 100 to 2000 nM for the first, 2000 to 5000 nM for the second.

`Cc1ccccc1NC(=O)c1ccc(NC(=O)NCc2ccncc2)cc1` [4-(3-(Pyridin-4-ylmethyl)ureido)-N-(o-tolyl)benzamide] and `Cc1ccccc1NS(=O)(=O)c1ccc(NC(=O)NCc2ccncc2)cc1` [4-(3-Pyridin-4-ylmethyl-ureido)-N-o-tolyl-benzenesulfonamide] fall in the same range of EC50: 100 to 2000 nM for the first, 100 to 2000 nM for the second.

First: O=C(NCc1ccncc1)Nc1ccc(C(=O)Nc2cccs2)cc1 [4-(3-(Pyridin-4-ylmethyl)ureido)-N-(thiophen-2-yl)benzamide]
Second: O=C(NCc1ccncc1)Nc1ccc(C(=O)Nc2cncnc2)cc1 [4-(3-(pyridin-4-ylmethyl)ureido)-N-(pyrimidin-5-yl)benzamide]
The EC50 of the first is higher: 2000 to 5000 nM for the first, 100 to 2000 nM for the second.

First: NC(=O)c1ccc(NC(=O)NCc2ccncc2)cc1 [4-(3-(Pyridin-4-ylmethyl)ureido)benzamide]
Second: O=C(NCc1ccncc1)Nc1ccc(C(=O)O)cc1 [4-(3-(Pyridin-4-ylmethyl)ureido)benzoic acid]
The EC50 of the first is lower: 5000 to 20000 nM for the first, over 20000 nM for the second.

`O=C(NCc1ccncc1)Nc1ccc(C(=O)Nc2ccc(OC(F)(F)F)cc2)cc1` [4-(3-(pyridin-4-ylmethyl)ureido)-N-(4-(trifluoromethoxy)phenyl)benzamide] and `O=C(NCc1ccncc1)Nc1ccc(S(=O)(=O)NCc2ccc(OC(F)(F)F)cc2)cc1` [4-(3-Pyridin-4-ylmethyl-ureido)-N-(4-trifluoromethoxy-benzyl)-benzenesulfonamide] fall in the same range of EC50: 100 to 2000 nM for the first, 100 to 2000 nM for the second.

First: O=C(NCc1ccncc1)Nc1ccc(C(=O)NC2CCOC2)cc1 (stereo not shown) [4-(3-(pyridin-4-ylmethyl)ureido)-N-(tetrahydrofuran-3-yl)benzamide]
Second: O=C(NCc1ccncc1)Nc1ccc(S(=O)(=O)NC2CCOC2)cc1 (stereo not shown) [4-(3-Pyridin-4-ylmethyl-ureido)-N-(tetrahydro-furan-3-yl)-benzenesulfonamide]
The EC50 of the first is higher: 5000 to 20000 nM for the first, 100 to 2000 nM for the second.

First: O=C(NCc1ccncc1)Nc1ccc(S(=O)(=O)NC2CCCc3ccccc32)cc1 (stereo not shown) [4-(3-Pyridin-4-ylmethyl-ureido)-N-(1,2,3,4-tetrahydro-naphthalen-1-yl)-benzenesulfonamide]
Second: Cc1ccc(NS(=O)(=O)c2ccc(NC(=O)NCc3ccncc3)cc2)cc1 [4-(3-Pyridin-4-ylmethyl-ureido)-N-p-tolyl-benzenesulfonamide]
The EC50 of the first is lower: under 100 nM for the first, 100 to 2000 nM for the second.

Compared with `O=C(NCc1ccncc1)Nc1ccc(S(=O)(=O)NCc2ccccc2OC(F)(F)F)cc1` [4-(3-Pyridin-4-ylmethyl-ureido)-N-(2-trifluoromethoxy-benzyl)-benzenesulfonamide], `O=C(NCc1ccncc1)Nc1ccc(S(=O)(=O)NCc2ccccc2C(F)(F)F)cc1` [4-(3-Pyridin-4-ylmethyl-ureido)-N-(2-trifluoromethyl-benzyl)-benzenesulfonamide] is higher in EC50: under 100 nM for the first, 100 to 2000 nM for the second.

`O=C(NCc1ccncc1)Nc1ccc(S(=O)(=O)NCc2cccc(C(F)(F)F)c2)cc1` [4-(3-Pyridin-4-ylmethyl-ureido)-N-(3-trifluoromethyl-benzyl)-benzenesulfonamide] and `O=C(NCc1ccncc1)Nc1ccc(S(=O)(=O)NCc2ccc(C(F)(F)F)cc2)cc1` [4-(3-Pyridin-4-ylmethyl-ureido)-N-(4-trifluoromethyl-benzyl)-benzenesulfonamide] fall in the same range of EC50: 100 to 2000 nM for the first, 100 to 2000 nM for the second.

Compared with `O=C(NCc1ccncc1)Nc1ccc(S(=O)(=O)Nc2ncccn2)cc1` [4-(3-Pyridin-4-ylmethyl-ureido)-N-pyrimidin-2-yl-benzenesulfonamide], `O=C(NCc1ccncc1)Nc1ccc(S(=O)(=O)Nc2nccs2)cc1` [4-(3-Pyridin-4-ylmethyl-ureido)-N-thiazol-2-yl-benzenesulfonamide] is lower in EC50: 5000 to 20000 nM for the first, 100 to 2000 nM for the second.

Work on `O=C(NCc1ccncc1)Nc1ccc(S(=O)(=O)NC2CCNC2)cc1` (stereo not shown) [4-(3-Pyridin-4-ylmethyl-ureido)-N-pyrrolidin-3-yl-benzenesulfonamide] yielded an EC50 of 5000 to 20000 nM.

Same assay, conditions: Table B-3; NAMPT activation, NMN formation

`CCOC(=O)c1ccc(N2CCN(Cc3ccncc3)C2=O)cc1` [4-(2-Oxo-3-pyridin-4-ylmethyl-imidazolidin-1-yl)-benzoic acid ethyl ester] and `O=C(O)c1ccc(N2CCN(Cc3ccncc3)C2=O)cc1` [4-(2-oxo-3-pyridin-4-ylmethyl-imidazolidin-1-yl)-benzoic acid] cannot be ordered by EC50: over 20000 nM for the first, over 20000 nM for the second.

With `CCOC(=O)c1ccc(NC(=O)N(C)Cc2ccccc2)cc1` [4-(3-Benzyl-3-methyl-ureido)-benzoic acid ethyl ester] the EC50 was over 20000 nM.

Reference: patent US11452717B2, “Small molecule activators of nicotinamide phosphoribosyltransferase (NAMPT) and uses thereof” (Sanford Burnham Prebys Medical Discovery Institute, priority 2017, dated 2022)
